According to publication PMC6934184, “Selective DNA-PKcs inhibition extends the therapeutic index of localized radiotherapy and chemotherapy” (The Journal of Clinical Investigation, 2019):

Target: T1, AKT2 (PKB beta) (Homo sapiens, UniProt P31751)
T1 construct: purchased Thermo Fisher Scientific (Life Technologies) SelectScreen
Experiment: SelectScreen Z'LYTE
Type: biochemical
Outline: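 NU5455 was profiled across the SelectScreen Broad panel of kinase activity and binding assays. Z'LYTE reactions such as CSF1R ran at apparent Km ATP, while the Adapta CAMK1 assay used ATP listed as 10. Values are given as percent.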

T1 sequence (P31751 whole entry): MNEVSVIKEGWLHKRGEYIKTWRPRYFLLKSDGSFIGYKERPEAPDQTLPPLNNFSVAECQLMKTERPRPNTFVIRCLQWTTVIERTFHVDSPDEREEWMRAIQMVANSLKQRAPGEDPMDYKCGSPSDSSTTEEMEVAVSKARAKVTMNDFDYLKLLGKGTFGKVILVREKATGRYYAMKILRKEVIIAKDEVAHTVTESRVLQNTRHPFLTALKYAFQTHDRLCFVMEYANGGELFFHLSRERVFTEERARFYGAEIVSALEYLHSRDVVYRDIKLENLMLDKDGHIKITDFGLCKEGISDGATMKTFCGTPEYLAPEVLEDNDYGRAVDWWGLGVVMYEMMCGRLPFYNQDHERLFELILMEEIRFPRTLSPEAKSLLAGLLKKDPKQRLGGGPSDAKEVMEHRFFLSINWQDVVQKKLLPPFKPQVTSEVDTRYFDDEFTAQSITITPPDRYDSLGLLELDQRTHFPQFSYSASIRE

CN(C(=O)CN1CCOCC1)c1ccc2sc3c(-c4cccc5c(=O)cc(N6CC7CCC(C6)O7)oc45)cccc3c2c1 [NU5455]
inhibition at 1 µM: 0%
